What was measured:
[1] = test system: synthesis of LTB4 in human whole blood; experiment: human whole blood LTB4 production inhibition assay; format: cell-based; conditions: calcimycin stimulated, read-out: hWB LTB4 IC50
In short: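 Readout: plasma LTB4 by antibody-based HTRF. Compound added to heparinized human whole blood, 15 min 37° C; calcimycin 20 μM final (PBS pH 7.4), 30 min 37° C; spun 1500×g 5 min, plasma taken.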

[2] = target: T1, recombinant human FLAP protein (Homo sapiens, UniProt P20292); experiment: FLAP binding assay (Scintillation Proximity Assay, displacement of [125I]L-691,831); conditions: read-out: FLAP SPA IC50
T1 construct: made in house; host or cells: Sf9 insect cells (100,000xg membrane fraction used)
T1 sequence (P20292 1-161): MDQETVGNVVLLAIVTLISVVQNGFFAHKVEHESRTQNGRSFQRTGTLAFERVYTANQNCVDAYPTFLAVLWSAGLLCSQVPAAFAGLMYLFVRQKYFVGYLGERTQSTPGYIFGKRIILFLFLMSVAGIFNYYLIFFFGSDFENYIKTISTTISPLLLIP
In short: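 Scintillation proximity displacement of [125I]L-691,831 (0.08 nM) from membranes of sf9 cells expressing recombinant human FLAP (5 μg/well) on WGA SPA beads, pH 7.5 Tris buffer. Plates shaken 2 h before counting. Non-specific binding defined with 10 μM unlabelled L-691,831.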

| Structure (SMILES) | IC50 [1] [nM] | IC50 [2] [nM] |
| --- | --- | --- |
| C[C@@](c1ccc(-c2cnc(N)nc2)nc1)(c1noc(-c2cn[nH]c2)n1)C1CC1 [Example 117, 5-(5-{(R)-1-Cyclopropyl-1-[5-(1H-pyrazol-4-yl)-[1,2,4]oxadiazol-3-yl]-ethyl}-pyridin-2-yl)-pyrimidin-2-ylamine] | 86 | 8.7 |
| Cn1cc(-c2nc(C(C)(c3ccc(-c4ccc(N)nc4)nc3)C3CC3)no2)cn1 (stereo not shown) [Example 118, 5-{1-Cyclopropyl-1-[5-(1-methyl-1H-pyrazol-4-yl)-[1,2,4]oxadiazol-3-yl]-ethyl}-[2,3′]bipyridinyl-6′-ylamine] | 210 | 47 |
| CO[C@H]1CCN(C(=O)Cn2cc(-c3nc([C@@](C)(c4ccc(-c5cnc(N)nc5)nc4)C4CC4)no3)cn2)C1 [Example 121, 2-[4-(3-{(R)-1-[6-(2-Amino-pyrimidin-5-yl)-pyridin-3-yl]-1-cyclopropyl-ethyl}-[1,2,4]oxadiazol-5-yl)-pyrazol-1-yl]-1-((S)-3-methoxy-pyrrolidin-1-yl)-ethanone] | 220 | 67 |
| COCCn1cc(-c2nc([C@@](C)(c3ccc(-c4cnc(N)cn4)nc3)C3CC3)no2)cn1 [Example 126, 5-[5-((R)-1-Cyclopropyl-1-{5-[1-(2-methoxy-ethyl)-1H-pyrazol-4-yl]-[1,2,4]oxadiazol-3-yl}-ethyl)-pyridin-2-yl]-pyrazin-2-ylamine] | 25 | 8.8 |
| COCCn1cc(-c2nc([C@](C)(c3ccc(-c4cnc(N)cn4)nc3)C3CC3)no2)cn1 [Example 127, 5-[5-((S)-1-Cyclopropyl-1-{5-[1-(2-methoxy-ethyl)-1H-pyrazol-4-yl]-[1,2,4]oxadiazol-3-yl}-ethyl)-pyridin-2-yl]-pyrazin-2-ylamine] | 410 | 220 |
| CC(C)[C@](C)(c1ccc(-c2cnc(N)nc2)nc1)c1noc(-c2cnn(CCS(C)(=O)=O)c2)n1 [Example 128, 5-[5-((R)-1-{5-[1-(2-Methanesulfonyl-ethyl)-1H-pyrazol-4-yl]-[1,2,4]oxadiazol-3-yl}-1,2-dimethyl-propyl)-pyridin-2-yl]-pyrimidin-2-ylamine] | 270 | 10 |
| CC(C)[C@](C)(c1ccc(-c2ccc(N)nc2)nc1)c1noc(-c2cnn(C3COC3)c2)n1 [Example 131, 5-{(R)-1,2-Dimethyl-1-[5-(1-oxetan-3-yl-1H-pyrazol-4-yl)-[1,2,4]oxadiazol-3-yl]-propyl}-[2,3′]bipyridinyl-6′-ylamine] | 39 | 5.6 |
| COCCn1cc(-c2nc([C@@](C)(c3ccc(-c4ccc(N)nc4)nc3)C(C)C)no2)cn1 [Example 133, 5-((R)-1-{5-[1-(2-Methoxy-ethyl)-1H-pyrazol-4-yl]-[1,2,4]oxadiazol-3-yl}-1,2-dimethyl-propyl)-[2,3′]bipyridinyl-6′-ylamine] | 30 | 7.5 |
| CC(C)[C@](C)(c1ccc(-c2ccc(N)nc2)nc1)c1noc(-c2cnn(CC(C)(C)O)c2)n1 [Example 136, 1-(4-{3-[(R)-1-(6′-Amino-[2,3′]bipyridinyl-5-yl)-1,2-dimethyl-propyl]-[1,2,4]oxadiazol-5-yl}-pyrazol-1-yl)-2-methyl-propan-2-ol] | 61 | 9.9 |
| CC(C)[C@](C)(c1ccc(-c2ccc(N)nc2)nc1)c1noc(-c2cnc(N3CCNCC3)cn2)n1 [Example 137, 5-{(R)-1,2-Dimethyl-1-[5-(3,4,5,6-tetrahydro-2H-[1,2′]bipyrazinyl-5′-yl)-[1,2,4]oxadiazol-3-yl]-propyl}-[2,3′]bipyridinyl-6′-ylamine] | 590 | 11 |
| CC(C)(O)Cn1cc(-c2nc([C@@](C)(c3ccc(-c4ccc(N)nc4)nc3)C3CC3)no2)cn1 [Example 139, 1-(4-{3-[(R)-1-(6′-Amino-[2,3′]bipyridinyl-5-yl)-1-cyclopropyl-ethyl]-[1,2,4]oxadiazol-5-yl}-pyrazol-1-yl)-2-methyl-propan-2-ol] | 68 | 33 |
| CC(C)[C@](C)(c1ccc(-c2cnc(N)nc2)nc1)c1noc(-c2cnn(CC(=O)NC(C)(C)C)c2)n1 [Example 141, 2-[4-(3-{(R)-1-[6-(2-Amino-pyrimidin-5-yl)-pyridin-3-yl]-1,2-dimethyl-propyl}-1,2,4-oxadiazol-5-yl)-pyrazol-1-yl]-N-tert-butyl-acetamide] | 68 | 8.3 |
| CC(C)[C@](C)(c1ccc(-c2cnc(N)nc2)nc1)c1noc(-c2cnn(CC(=O)N(C)C(C)(C)C)c2)n1 [Example 143, 2-[4-(3-{(R)-1-[6-(2-Amino-pyrimidin-5-yl)-pyridin-3-yl]-1,2-dimethyl-propyl}-1,2,4-oxadiazol-5-yl)-pyrazol-1-yl]-N-tert-butyl-N-methyl-acetamide] | 51 | 9.2 |

The remaining lines, values ahead:

| IC50 [1] [nM] | IC50 [2] [nM] | Structure (SMILES) |
| --- | --- | --- |
| 2200 | 3.4 | CC(C)[C@](C)(c1ccc(-c2cnc(N)[nH]c2=O)nc1)c1noc(-c2cnn(CC(C)(C)O)c2)n1 [Example 119, 2-Amino-5-[5-((R)-1-{5-[1-(2-hydroxy-2-methyl-propyl)-1H-pyrazol-4-yl]-[1,2,4]oxadiazol-3-yl}-1,2-dimethyl-propyl)-pyridin-2-yl]-3H-pyrimidin-4-one] |
| 300 | 42 | CN(C)CCn1cc(-c2nc(C(C)(c3ccc(-c4ccc(N)nc4)nc3)C3CC3)no2)cn1 (stereo not shown) [Example 120, 5-(1-Cyclopropyl-1-{5-[1-(2-dimethylamino-ethyl)-1H-pyrazol-4-yl]-[1,2,4]oxadiazol-3-yl}-ethyl)-[2,3′]bipyridinyl-6′-ylamine] |
| 450 | 34 | CN(C)C(=O)Cn1cc(-c2nc([C@@](C)(c3ccc(-c4cnc(N)cn4)nc3)C3CC3)no2)cn1 [Example 122, 2-[4-(3-{(R)-1-[6-(5-Amino-pyrazin-2-yl)-pyridin-3-yl]-1-cyclopropyl-ethyl}-[1,2,4]oxadiazol-5-yl)-pyrazol-1-yl]-N,N-dimethyl-acetamide] |
| 3300 | 300 | CN(C)C(=O)Cn1cc(-c2nc([C@](C)(c3ccc(-c4cnc(N)cn4)nc3)C3CC3)no2)cn1 [Example 123, 2-[4-(3-{(S)-1-[6-(5-Amino-pyrazin-2-yl)-pyridin-3-yl]-1-cyclopropyl-ethyl}-[1,2,4]oxadiazol-5-yl)-pyrazol-1-yl]-N,N-dimethyl-acetamide] |
| 60 | 18 | CN(C)CCn1cc(-c2nc([C@@](C)(c3ccc(-c4cnc(N)cn4)nc3)C3CC3)no2)cn1 [Example 124, 5-[5-((R)-1-Cyclopropyl-1-{5-[1-(2-dimethylamino-ethyl)-1H-pyrazol-4-yl]-[1,2,4]oxadiazol-3-yl}-ethyl)-pyridin-2-yl]-pyrazin-2-ylamine] |
| 370 | 120 | CN(C)CCn1cc(-c2nc([C@](C)(c3ccc(-c4cnc(N)cn4)nc3)C3CC3)no2)cn1 [Example 125, 5-[5-((S)-1-Cyclopropyl-1-{5-[1-(2-dimethylamino-ethyl)-1H-pyrazol-4-yl]-[1,2,4]oxadiazol-3-yl}-ethyl)-pyridin-2-yl]-pyrazin-2-ylamine] |
| 19 | 8.1 | CC(C)[C@](C)(c1ccc(-c2cnc(N)nc2)nc1)c1noc(-c2cnn(CC#N)c2)n1 [Example 129, [4-(3-{(R)-1-[6-(2-Amino-pyrimidin-5-yl)-pyridin-3-yl]-1,2-dimethyl-propyl}-[1,2,4]oxadiazol-5-yl)-pyrazol-1-yl]-acetonitrile] |
| 94 | 15 | CNc1cnc(-c2ccc(C(C)(c3noc(-c4cnn(CC(C)(C)O)c4)n3)C3CC3)cn2)cn1 (stereo not shown) [Example 130, 1-[4-(3-{1-Cyclopropyl-1-[6-(5-methylamino-pyrazin-2-yl)-pyridin-3-yl]-ethyl}-[1,2,4]oxadiazol-5-yl)-pyrazol-1-yl]-2-methyl-propan-2-ol] |
| 130 | 12 | CC(C)[C@](C)(c1ccc(-c2ccc(N)nc2)nc1)c1noc(-c2cnn(CC(=O)N(C)C)c2)n1 [Example 132, 2-(4-{3-[(R)-1-(6′-Amino-[2,3′]bipyridinyl-5-yl)-1,2-dimethyl-propyl]-[1,2,4]oxadiazol-5-yl}-pyrazol-1-yl)-N,N-dimethyl-acetamide] |
| 310 | 7.2 | C[C@@](c1ccc(-c2cnc(N)nc2)nc1)(c1noc(-c2cnc(N3CCNCC3)cn2)n1)C1CC1 [Example 134, 5-(5-{(R)-1-Cyclopropyl-1-[5-(3,4,5,6-tetrahydro-2H-[1,2′]bipyrazinyl-5′-yl)-[1,2,4]oxadiazol-3-yl]-ethyl}-pyridin-2-yl)-pyrimidin-2-ylamine] |
| 100 | 22 | COCCn1cc(-c2nc([C@@](C)(c3ccc(-c4ccc(N)nc4)nc3)C3CC3)no2)cn1 [Example 138, 5-((R)-1-Cyclopropyl-1-{5-[1-(2-methoxy-ethyl)-1H-pyrazol-4-yl]-[1,2,4]oxadiazol-3-yl}-ethyl)-[2,3′]bipyridinyl-6′-ylamine] |
| 150 | 44 | CN(C)C(=O)Cn1cc(-c2nc([C@@](C)(c3ccc(-c4ccc(N)nc4)nc3)C3CC3)no2)cn1 [Example 140, 2-(4-{3-[(R)-1-(6′-Amino-[2,3′]bipyridinyl-5-yl)-1-cyclopropyl-ethyl]-[1,2,4]oxadiazol-5-yl}-pyrazol-1-yl)-N,N-dimethyl-acetamide] |
| 85 | 16 | CC(C)NC(=O)Cn1cc(-c2nc([C@@](C)(c3ccc(-c4cnc(N)nc4)nc3)C(C)C)no2)cn1 [Example 142, 2-[4-(3-{(R)-1-[6-(2-Amino-pyrimidin-5-yl)-pyridin-3-yl]-1,2-dimethyl-propyl}-1,2,4-oxadiazol-5-yl)-pyrazol-1-yl]-N-isopropyl-acetamide] |

— patent US8580825B2, “Oxadiazole inhibitors of leukotriene production” (Boehringer Ingelheim International GmbH, priority 2010, dated 2013)
